Key:
Format in all cases: cell-based, human
[1] = test system: UBE2G2; assay: UBE2G2 levels in HT1080 cells loaded with oleic acid; conditions: HT1080, 200 μM oleic acid
Experimental: Plasmid transfections were carried out using PolyFect (Qiagen, Germantown, MD, USA) or JetPrime (Polyplus, New York, NY, USA) reagents. For CHX chase experiments, approximately 24 hours following plasmid transfection, cells were treated with 50 μg/mL CHX in complete media for the indicated times. For lipid droplet experiments, cells were treated with 200 μM oleic acid (Millipore Sigma) for 16 hours, beginning 24 hours following transfection. For assessment of GFP^u stability, cells were cultured in DMEM supplemented with 10% FetalPlex animal serum complex (Gemini Bio, West Sacramento, CA, USA) and treated with 50 μM emetine for the indicated times to inhibit protein synthesis. […] Clarified lysates or immunoprecipitates were denatured by heating in NuPAGE LDS Sample Buffer with β-mercaptoethanol at 70°C for 10 minutes, resolved on Bis-Tris polyacrylamide gels in NuPAGE MES or MOPS SDS running buffer and analyzed by western blotting. Proteins were detected using Clarity Western ECL (Bio-Rad, Hercules, CA, USA), Radiance Q (Azure Biosystems, Dublin, CA, USA), or SuperSignal Femto West (Thermo Scientific, Waltham, MA, USA) ECL reagents and a c280 Imager (Azure Biosystems) or autoradiography. […]

[2] = test system: gp78:UBE2G2; assay: co-IP of gp78 with transfected MYC-UBE2G2, +/- oleic acid; conditions: WT HT1080, oleic acid loading, three experiments, reviewer response
Text: (§1) page 10: Major points: The phenotypes they show are strong but it would be nice to see the initial observations repeated in other cell lines. […] We have now generated HEK293 AUP1 KO cell lines and have recapitulated our initial results on domain requirements for both NHK and RI332 (Fig 1G-H, Fig 2C-D). We also provide data that E2 loss similarly occurs in these HEK293 AUP1 KO cells and that E2 stability can be restored by GFP-G2BR (Fig S5D and S5E). To extend our observations beyond HT1080 and HEK293, we also generated and examined M17 AUP1 KO cells, and observed a similar destabilization of UBE2G2 with loss of AUP1. […] Although, it is possible that the stability of UBE2G2 is due to the level of AUP1 in these cells, it is not clear whether the G2BR of AUP1 is always available for UBE2G2 binding and whether AUP1 acts as a sink for UBE2G2 when associated with lipid droplets. […] They can then compare the 'pulldown levels' of AUP1 and gp78 to the amounts of protein in the reference binding domains in (Figure 6). […] Alternatively, NHK degradation may be reduced under increasing Oleic acid levels but UBE2G2 binding is not affected. […] We have now loaded cells with oleic acid and assessed E2 levels and NHK degradation (Fig S5A and Fig S5B). […]

[3] = test system: AUP1:UBE2G2; assay: co-IP of AUP1 with transfected MYC-UBE2G2, +/- oleic acid; conditions: WT HT1080, oleic acid loading, three experiments, reviewer response
Text: as §1

Structure (SMILES): CCCCCCCC/C=C\CCCCCCCC(=O)O [oleic acid]
- effect on UBE2G2 levels [1]: affected neither UBE2G2 levels
- decrease of gp78 co-association with MYC-UBE2G2 [2]: ~ 20%
- decrease of AUP1 co-association with MYC-UBE2G2 [3]: ~ 27%
